Assay results as given in PubChem BioAssay (NCI).
Where “and” joins values, the source holds several entries; their conditions need not be identical. Identical values can stand only once.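 Protocol summary: plate cells (96-well), add compound at 5 concentrations, incubate 48 h, interpolate endpoints linearly. GI50: concentration for 50% inhibition of growth. The concentration for full growth arrest is given as TGI.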

Columns and labels:
Experiment in all cases: NCI anticancer screen, dose series, 48 h
[1] = tested on: OVCAR-8 ovarian
[2] = tested on: SK-MEL-2 melanoma
[3] = tested on: HL-60(TB) leukemia
[4] = tested on: OVCAR-4 ovarian
[5] = tested on: EKVX NSCLC
[6] = tested on: SK-MEL-28 melanoma
[7] = tested on: LOX IMVI melanoma
[8] = tested on: OVCAR-3 ovarian
[9] = tested on: HOP-92 NSCLC
[10] = tested on: SF-539 CNS

SMILES | TGI [1] | TGI [2] | TGI [3] [µM] | TGI [4] [µM] | TGI [5] [µM] | TGI [6] | TGI [7] | TGI [8] | TGI [9] | TGI [10] | GI50 [1] | GI50 [2] | GI50 [3] [µM] | GI50 [4] | GI50 [5] | GI50 [7] | GI50 [8] | GI50 [9] | GI50 [10] | GI50 [6]
CCC1c2cc3n(c(=O)c2COC1O)Cc1c-3nc2ccccc2c1Cl (configuration not stated) | > 100 µM | > 100 µM | > 100 | > 100 | > 100 | > 100 µM | > 100 µM | > 100 µM | > 100 µM | > 100 µM | – | – | – | – | – | – | – | – | – | –
CCOC(=O)[C@@H](C)C[C@H](Cc1ccccc1)NC(=O)c1csc([C@@H](C[C@H](C(C)C)N(C)C(=O)[C@@H](NC(=O)[C@H]2C[C@H](O)CCN2C)C(C)C)OC(C)=O)n1 | > 16.7 µM | > 16.7 µM | 0.012 | > 16.7 | > 16.7 | – | > 16.7 µM | – | > 4.46 µM | 0.0157 µM | 0.0166 µM | 0.00243 µM | 0.00278 | 0.0259 µM | 0.05 µM | 0.00422 µM | < 0.00167 µM | 0.00663 µM | 0.00452 µM | –
O=C(/C=C/c1cccc(S(=O)(=O)Nc2ccccc2)c1)NO | 16.9 µM and 17 µM | 15.6 µM and > 71.2 µM | 29.8 | > 100 | > 100 | 10.3 µM and 51.8 µM | 1.62 µM and 10.2 µM | 4.16 µM and 3.76 µM | 2.19 µM and 1.21 µM | 20.9 µM and 23.9 µM | 0.309 µM and 0.0341 µM | 2.34 µM and 5.73 µM | – | 1.98 µM and 1.08 µM | 1.13 µM and 0.409 µM | 0.259 µM and 0.293 µM | 0.565 µM and 0.512 µM | 0.27 µM and 0.074 µM | 0.696 µM and 0.13 µM | 1 µM and 1.55 µM
CCCCN(CC)CCCCCCCCCCN1CCCc2cc(OC)ccc21 | 13.2 µM | 4.15 µM | 5 | 19.6 | 25.4 | 7.33 µM | 3.34 µM | 11.3 µM | 6.76 µM | 9.35 µM | 3.92 µM | 1.95 µM | 2.07 | 4.33 µM | 3.57 µM | 1.7 µM | 3.35 µM | 2.19 µM | 3.32 µM | 2.92 µM
O=[N+]([O-])c1ccc(/C(Cl)=C/c2ccc(/C=C(\Cl)c3ccc([N+](=O)[O-])cc3[N+](=O)[O-])cc2)c([N+](=O)[O-])c1 | > 100 µM | > 100 µM | > 100 | > 100 | > 100 | > 100 µM | > 100 µM | – | > 100 µM | > 100 µM | – | – | – | – | – | – | – | – | – | –
O=C1c2cccnc2C(=O)c2c1c(C(=O)OCCc1ccccn1)c1ccccn21 | 2.12 µM | 3.47 µM | 5.93 | 8.39 | 3.81 | 1.55 µM | 1.12 µM | 1.45 µM | 5.58 µM | 0.432 µM | 0.0589 µM | 0.351 µM | 0.783 | 1.13 µM | 0.305 µM | 0.0206 µM | 0.0305 µM | 0.121 µM | 0.0334 µM | 0.0749 µM
Oc1ccc(Cc2ccc(O)c(C3CC(c4ccc(Cl)cc4)=NN3)c2)cc1C1CC(c2ccc(Cl)cc2)=NN1 (configuration not stated) | > 42.4 µM | 10.5 µM | > 100 | > 44.6 | > 100 | > 49.9 µM | 12 µM | 16.5 µM | 20.9 µM | > 40.2 µM | 2.87 µM | 2.96 µM | 2.73 | 2.97 µM | 3.2 µM | 2.22 µM | 2.71 µM | 3.39 µM | 4.69 µM | 5.74 µM
CC(=O)N(CCN1C(=O)c2ccccc2C1=O)CCN1C(=O)c2ccccc2C1=O | > 100 µM | > 100 µM | > 100 | > 100 | > 100 | > 100 µM | > 100 µM | > 100 µM | > 100 µM | – | – | – | – | – | – | – | – | – | – | –
CN(CSc1ccc(Cl)cc1)c1ccc(CSc2ccc(Cl)cc2)cc1 | 39.8 µM | 36.2 µM | 32 | 20 | 16 | 19.6 µM | 6.32 µM | 5.17 µM | 16.9 µM | 6.48 µM | 13.6 µM | 14.2 µM | 1.57 | 3.15 µM | 3.16 µM | 1.63 µM | 1.97 µM | 3.56 µM | 2.35 µM | 5.55 µM
O=C(Nc1ccc(I)cc1)c1cccc([N+](=O)[O-])c1O | > 100 µM | 8.79 µM | 9.32 | 25 | > 100 | > 100 µM | > 100 µM | > 100 µM | 3.22 µM | > 100 µM | 4.37 µM | 2.6 µM | 2.96 | 2.61 µM | 2.59 µM | 3.28 µM | 2.9 µM | 0.373 µM | 4.85 µM | 4.63 µM
O=c1nc(N2CCCC2)nc(N2CCCC2)s1 | > 100 µM | > 100 µM | > 100 | > 100 | > 100 | > 100 µM | > 100 µM | – | > 100 µM | > 100 µM | – | – | – | – | – | – | – | – | – | –
NS(=O)(=O)c1ccc(N=C2C(=O)Nc3ccccc32)cc1 | > 100 µM | > 100 µM | > 100 | > 100 | > 100 | > 100 µM | > 100 µM | > 100 µM | > 100 µM | – | – | – | – | – | – | – | – | – | – | –
c1ccc(-c2cn(-c3ccccc3)c(-c3ccccc3)n2)cc1 | 20.4 µM | 27.2 µM | 17.9 | 31 | 28.9 | 16.5 µM | 4.29 µM | 18.6 µM | 50.4 µM | 27.9 µM | 7.89 µM | 13.9 µM | 3.07 | 16.4 µM | 15.1 µM | 1.95 µM | 6.38 µM | 20.1 µM | 14.2 µM | 4.75 µM
NCCCNc1nc2ccc(Cl)cc2c2c(=O)c3cc(F)ccc3sc12 | 15.1 µM | 33.3 µM | 10.7 | 18 | 21.2 | 24.2 µM | 2.95 µM | 4.03 µM | 6.51 µM | 14.3 µM | 3.24 µM | 12.4 µM | 3.13 | 4.3 µM | 6 µM | 1.57 µM | 1.92 µM | 1.58 µM | 3.79 µM | 10.1 µM
